This note sets out measurements from patent publication US11077090B2, “Compounds and compositions and uses thereof” (Sunovion Pharmaceuticals Inc., priority 2016, dated 2021).

One test relates to male Sprague-Dawley rats. In words: Stress induced hyperthermia (SIH) assay. The format is in vivo. Details: key: −: No change in Delta T ([…]T); +: Significant decrease in Delta T ([…]T) (P < 0.05 vs vehicle). The source says:
Stress-induced hyperthermia (SIH), mediated by the autonomic nervous system, is well known to occur prior to and during exposure to stress and/or anxiety-inducing situations. In many human anxiety disorders, it occurs as an integral part of the pathology and is often considered a representative symptom of the disease, e.g. in generalized anxiety disorder as defined in DSM-IV. In rodents, acute administration of anxiolytic drugs, such as buspirone or chlordiazepoxide (CDP), are known to reduce the SIH response to stressors such as handling, noise, heat, novelty, or pain. The test involves two measures of rectal temperature repeated in the same animal with a 10-minute interval. On the day prior to testing, male Sprague-Dawley rats from Envigo (n=10 per group) were brought to the experimental room approximately one hour before scheduled lights out and singly housed overnight with food and water ad libitum. On the morning of the experiment, animals were first injected with either vehicle or test compound orally by gavage, or CDP (10 mg/kg, i.p.). One hour following injection, each animal was removed from the holding cage and held in a supine position while the rectal temperature was measured by slowly inserting a rectal probe into the animal's rectum at a length of approximately 0.5 cm. The rectal probe was attached to a PhysiTemp digital thermometer (Fisher Scientific) which provides temperature readings at 0.1° C. accuracy. The probe remained inside the animal for approximately 5 seconds or until body temperature reaches stability. This temperature was recorded as the baseline rectal temperature (T1). The animal was immediately placed back to the holding cage and after a 10-min interval the second rectal temperature (T2) was taken using the same procedure as in measuring T1. Before each insertion, the rectal probe was cleaned with an alcohol pad and lubricated with sterile K-Y jelly. All SIH studies were conducted between 8:00-11:00 a.m. The SIH response was calculated as the difference in temperature between the second and first temperature reading (Delta T, […]T). A reduction in […]T relative to the vehicle condition indicates an anxiolytic drug-like response.

The next test concerns Male C57Bl/6J mice. The experiment in a line: Marble burying test. The format is in vivo. The arrangement: key: −: No reduction in number of marbles buried; +: Significant reduction in number of marbles buried (P < 0.05 vs vehicle). The procedure: The marble burying assay is used to evaluate the anxiolytic activity of a test compound. After placement in a novel cage containing glass marbles, mice will bury the marbles. Acute administration of anxiolytic agents, as well as antidepressants, decrease this activity at non-sedating doses. Male C57Bl/6J mice from Jackson Laboratories were used in this study and were acclimatized to the experimental room for at least 1 hour prior to testing. Mice (n=10 per group) were administered sterile water or test compound intraperitoneally (i.p.) or orally by gavage (p.o.), or the positive control chlordiazepoxide (15 mg/kg, i.p.), in 10 mL/kg injection volumes, and returned to their home cages for a 30-minute pretreatment period. The mice were then placed individually in clean cages, containing hard wood bedding and twenty black marbles placed in spaced rows of 4×5. After a 30-minute test session, the number of buried marbles was counted. A marble was considered buried if it was pushed at least two thirds into the bedding. Locomotor activity was monitored by measuring the distance traveled using an overhead camera and Video Tracker Software (ViewPoint Life Sciences Software, France). A reduction in the number of marbles buried relative to the vehicle condition indicates an anxiolytic drug-like effect.

In test [1] the test system is extracellular concentrations of neurotransmitters (DA, 5-HT, NE, ACh) in the prefrontal cortex (PFC). The experiment in a line: In vivo microdialysis of the prefrontal cortex. The conditions noted are these: mice. Details: key: −: No change in extracellular concentration (P < 0.05 vs vehicle); +: Significant increase in extracellular concentration (P < 0.05 vs vehicle). An excerpt: (§1) In vivo microdialysis is a biological sampling technique used to evaluate the extracellular concentrations of neurotransmitters in specific brain regions following administration of a test compound to animals. Dysfunctions of brain neurotransmitter systems, such as dopamine (DA), norepinephrine (NE), serotonin (5-HT) and/or acetylcholine (ACh), have been linked to cognitive deficits (e.g., memory impairment, inattention, etc.), which may be observed in human aging, Alzheimer's disease (AD) and Attention Deficit Hyperactivity Disorder (ADHD). Drugs that increase extracellular concentrations of DA, NE, 5-HT and/or ACh in the prefrontal cortex (PFC), such as donepezil and methylphenidate, can reverse cognitive deficits in humans and animals.
(§2) Adult male C57Bl/6 mice (n=6 per group) from Jackson Laboratories were anesthetized using isoflurane (2%, 800 mL/min O2). Bupivacaine/epinephrine was used for local anesthesia and carprofen was used for peri-/post-operative analgesia. The animals were placed in a stereotaxic frame (Kopf instruments, USA) and I-shaped microdialysis probes (polyacrylonitril membrane, BrainLink, the Netherlands) were inserted into the PFC (2 mm exposed membrane; coordinates for the tips of the probes: posterior (AP)=+2.0 mm to bregma, lateral (L)=−0.5 mm to midline and ventral (V)=−3.3 mm to dura, the toothbar set at 0.0 mm) and the NAcc (coordinates for the tips of the probes: posterior (AP)=+0.8 mm to bregma, lateral (L)=+0.9 mm to midline and ventral (V)=−4.2 mm to dura, the toothbar set at 0.0 mm (Paxinos and Franklin, 2001)). After surgery, animals were housed individually in cages and provided food and water ad libitum. In vivo microdialysis experiments were performed one day after surgery. On the day of the experiment, the microdialysis probes were connected with flexible PEEK tubing to a microperfusion pump (Harvard PHD 2000 Syringe pump, Holliston, Mass. or similar). Microdialysis probes were perfused with artificial cerebrospinal fluid (aCSF) containing 147 mM NaCl, 3.0 mM KCl, 1.2 mM CaCl2 and 1.2 mM MgCl2, at a flow rate of […]. Microdialysis samples were collected for 30 minute periods by an automated fraction collector (820 Microsampler, Univentor, Malta or similar) into polystyrene mini-vials already containing 15 μL of 0.02 M formic acid (FA) and 0.04% ascorbic acid in ultrapurified H2O. Four basal samples were collected before the administration of vehicle or test compound (i.p., 5 mL/kg injection volumes). Samples were collected for an additional 240 min following vehicle or compound administration. All the dialysis samples were stored at −80° C. awaiting analysis. After the experiment, the mice were sacrificed and brain tissue was collected for probe verification. Each dialysis sample was analyzed for concentrations of DA, NE, 5-HT and ACh as determined by HPLC with tandem mass spectrometry (MS/MS) detection using labeled isotopes of the analytes of interest as internal standards. Data was expressed as a percentage of basal output, calculated by dividing each post-dose time point with the average basal output=100%. An increase in the post-dose percent basal output of DA, NE, 5-HT and/or ACh in the PFC relative to the vehicle condition indicates a potential cognition-enhancing drug-like response. Graphical representations of the observed changes in neurotransmitter concentrations are shown in the indicated Figures.

Test [2] has as its system extracellular concentrations of neurotransmitters (DA, 5-HT, NE, ACh) in the nucleus accumbens (NAcc). In words: In vivo microdialysis of the nucleus accumbens. Details: key: −: No change in extracellular concentration (P < 0.05 vs vehicle); +: Significant increase in extracellular concentration (P < 0.05 vs vehicle). The note with it: mice.
Description: as §1, §2

The test system of a further test is compound-treated mice. The experiment in a line: Neuropharmacological assay (SmartCube): behavioral activity signature and minimal effective dose. The format is in vivo. In a few lines:
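Video-recorded behavior is compared algorithmically against a reference-compound database, yielding class probabilities (best dose reported). Compounds given i.p. in NMP/PEG/propylene glycol 15 min pre-test at 3 doses; potency as MED, the dose (mpk, range usually 0.3–30) reaching ≥50% total activity.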

The mark [3] stands for this setting: i.p. 15 min before test, most efficacious dose(s).

For the compound `C[C@@H]1OCc2ccccc2[C@H]1N` (single isomer, unassigned) [Compound 152], the “Delta T ([…]T)” value with male Sprague-Dawley rats (0.3 mg/kg PO) is recorded as “−”. Besides, the “Marbles Buried” value with Male C57Bl/6J mice (1 mg/kg (i.p.)) is reported as “−”. In addition, in test [1] (10 mg/kg IP), the “PFC [5-HT] (FIG. 2)” value is “+”, the “PFC [ACh] (FIG. 4)” value is on record as “+”, the “PFC [DA] (FIG. 1)” value is “+” and the “PFC [NE] (FIG. 3)” value is on record as “+”. Besides, in test [2] (10 mg/kg IP), the “NAcc [5-HT] (FIG. 6)” value is on record as “+”, the “NAcc [ACh] (FIG. 8)” value is “−”, the “NAcc [DA] (FIG. 5)” value is on record as “−” and the “NAcc [NE] (FIG. 7)” value is reported as “+”.
Take `Cc1cccc2c1[C@@H](N)[C@@H](C)OC2` (single isomer, unassigned) [Compound 170]: the “Delta T ([…]T)” value in the test on male Sprague-Dawley rats (3 mg/kg PO) is reported as “−”. In addition, the “Marbles Buried” value in the test with Male C57Bl/6J mice (1 mg/kg (i.p.)) was “−”. Besides, in test [1] (30 mg/kg IP), the “PFC [5-HT] (FIG. 2)” value is recorded as “−”, the “PFC [ACh] (FIG. 4)” value is given as “−”, the “PFC [DA] (FIG. 1)” value was “+” and the “PFC [NE] (FIG. 3)” value is listed as “+”. Moreover, in test [2] (30 mg/kg IP), the “NAcc [5-HT] (FIG. 6)” value is given as “−”, the “NAcc [ACh] (FIG. 8)” value was “−”, the “NAcc [DA] (FIG. 5)” value was “−” and the “NAcc [NE] (FIG. 7)” value was “+”.
Take `Cc1ccc2c(c1)[C@H](N)[C@H](C)OC2` [Compound 157]: in the test with male Sprague-Dawley rats (1 mg/kg PO), the “Delta T ([…]T)” value is listed as “−”. For the same compound, in the test on Male C57Bl/6J mice (1 mg/kg (i.p.)), the “Marbles Buried” value is listed as “−”. In test [1] (30 mg/kg IP), the “PFC [5-HT] (FIG. 2)” value is given as “+”, the “PFC [ACh] (FIG. 4)” value is “−”, the “PFC [DA] (FIG. 1)” value is “+” and the “PFC [NE] (FIG. 3)” value is recorded as “+”. In addition, in test [2] (30 mg/kg IP), the “NAcc [5-HT] (FIG. 6)” value was “−”, the “NAcc [ACh] (FIG. 8)” value is “−”, the “NAcc [DA] (FIG. 5)” value is “−” and the “NAcc [NE] (FIG. 7)” value is given as “+”.
In the case of `Cc1ccc2c(c1)[C@H](N)[C@H](C)OC2` [Example 157], the “Delta T ([…]T)” value in the test with male Sprague-Dawley rats (3 mg/kg PO) is listed as “+”. Further, in the test with male Sprague-Dawley rats (10 mg/kg PO), the “Delta T ([…]T)” value was “+”. Besides, the “Delta T ([…]T)” value with male Sprague-Dawley rats (30 mg/kg PO) is reported as “+”. In addition, the “Marbles Buried” value in the test on Male C57Bl/6J mice (3 mg/kg (i.p.)) was “−”. For the same compound, the “Marbles Buried” value in the test with Male C57Bl/6J mice (10 mg/kg (i.p.)) was “+”. Besides, in the test with compound-treated mice (MED = dose having 50% or more total activity), the “Potency: minimal effective dose (MED), binned” value is “A (≤3 mpk)”. In addition, in the test with compound-treated mice (setting [3]), the “AD: ADHD (probability of activity signature)” value is given as “+ (LOQ ≤ + <5%)”, the “AG: analgesic (probability of activity signature)” value was “++ (5% ≤ ++ <25%)”, the “AX: anxiolytic (probability of activity signature)” value is “++ (5% ≤ ++ <25%)” and the “CE: cognitive enhancer (probability of activity signature)” value is listed as “++ (5% ≤ ++ <25%)”. Moreover, in the test on compound-treated mice (setting [3]), the “DP: anti-depressant (probability of activity signature)” value is “++ (5% ≤ ++ <25%)”, the “MS: mood stabilizer (probability of activity signature)” value is “++ (5% ≤ ++ <25%)”, the “PS: anti-psychotic (probability of activity signature)” value is on record as “+++ (25% ≤ +++ <50%)” and the “SD: sedative hypnotic (probability of activity signature)” value is “+ (LOQ ≤ + <5%)”. In the test on compound-treated mice (setting [3]), the “UN: uncharacterized CNS activity (probability of activity signature)” value is given as “++++ (50% ≤ ++++)”.
